Assay results taken from patent publication US8835422B2, “Substituted imidazoheterocycle derivatives” (Cara Therapeutics, Inc., priority 2008, dated 2014).
pEC50: −log10 of the molar value. Read-outs that look alike come from different tables or passages of the source.

Key:
Format in all cases: cell-based
[1] = molecular target: T1, human CB2 receptor (hCB2) (Homo sapiens, UniProt P34972); experiment: cAMP assay (LANCE TR-FRET) in CHO-K1 cells stably expressing hCB2
T1 construct: host or cells: CHO-K1
Method: (§1) The ability of compounds to act as agonists or inverse agonists at human CB2 and CB1 receptors (hCB2, hCB1, respectively) and at the rat CB2 receptor (rCB2) was determined by measuring changes in intracellular cAMP levels. Chinese Hamster Ovary (CHO-K1) cell lines stably expressing hCB2 (Genebank: X74328) or hCB1 (Genebank: X54937) were purchased from Euroscreen (Gosselies, Belgium). The rat CB2 receptor was expressed from genomic DNA (provided by M. Abood, California Pacific Medical Center) in CHO-K1 cells from expression plasmid vector, pcDNA3.1.
(§2) Receptor mediated responses were determined by measuring changes in intracellular cAMP using LANCE cAMP detection kit (cat #AD0264, Perkin Elmer, Wellesley, Mass.) based on time-resolved fluorescence resonance energy transfer (TR-FRET).
(§3) On the day of the experiment, cells were spun at low speed for 5 min at room temperature. […] Cell clumps were removed by filtering through cell strainer 40 μm (BD Falcon, Discovery Labware, Bedford, Mass.) and diluted to 2×10^5 cells/mL. Antibody supplied with the LANCE cAMP immunoassay kit was then added according to the manufacturer's instructions. An aliquot of cells was taken for un-induced controls. […] Cells were then incubated for 30 min at room temperature prior to adding to Proxiplates containing test compounds (final DMSO concentration was less than 0.5%) with a Multidrop bulk dispenser, followed by a sixty minute incubation at room temperature. The response was stopped by addition of the detection mix supplied with the LANCE kit. The reagents were allowed to equilibrate for three hours prior to reading on an Envision multi-mode detector (Perkin-Elmer). TR-FRET was measured using a 330-380 nm excitation filter, a 665 nm emission filter, dichroic mirror 380 nm and Z=1 mm. Cyclic AMP concentrations in each well were back-calculated from a cAMP standard curve run concurrently during each assay. Each plate contained 16 wells of forskolin stimulated cells and 16 wells of forskolin plus CP55,940-treated cells. […] Concentrations of cAMP were expressed as a percent of the difference of these two groups of wells.

[2] = molecular target: human CB1 receptor (hCB1) (Homo sapiens, UniProt P21554); experiment: cAMP assay (LANCE TR-FRET) in CHO-K1 cells stably expressing hCB1
Method: as §1, §2, §3

rat CB2 receptor (rCB2) = molecular target: T2, rat CB2 receptor (rCB2) (Rattus norvegicus, UniProt Q9QZN9); experiment: cAMP assay (LANCE TR-FRET) in CHO-K1 cells expressing rat CB2
T2 construct: expressed in transfected cells; host or cells: CHO-K1 (plasmid pcDNA3.1)
T2 sequence (Q9QZN9 1-360): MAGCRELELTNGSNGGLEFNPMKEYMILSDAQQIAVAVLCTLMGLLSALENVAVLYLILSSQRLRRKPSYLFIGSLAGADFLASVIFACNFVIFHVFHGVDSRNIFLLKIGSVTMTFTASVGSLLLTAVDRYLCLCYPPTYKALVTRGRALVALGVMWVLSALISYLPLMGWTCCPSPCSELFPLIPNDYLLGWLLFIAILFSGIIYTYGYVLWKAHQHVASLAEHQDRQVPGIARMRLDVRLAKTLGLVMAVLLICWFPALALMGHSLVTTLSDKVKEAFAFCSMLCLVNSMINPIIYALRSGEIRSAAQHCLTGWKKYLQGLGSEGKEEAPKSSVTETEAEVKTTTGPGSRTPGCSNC
Method: as §1, §2, §3

T1 sequence (P34972 whole entry): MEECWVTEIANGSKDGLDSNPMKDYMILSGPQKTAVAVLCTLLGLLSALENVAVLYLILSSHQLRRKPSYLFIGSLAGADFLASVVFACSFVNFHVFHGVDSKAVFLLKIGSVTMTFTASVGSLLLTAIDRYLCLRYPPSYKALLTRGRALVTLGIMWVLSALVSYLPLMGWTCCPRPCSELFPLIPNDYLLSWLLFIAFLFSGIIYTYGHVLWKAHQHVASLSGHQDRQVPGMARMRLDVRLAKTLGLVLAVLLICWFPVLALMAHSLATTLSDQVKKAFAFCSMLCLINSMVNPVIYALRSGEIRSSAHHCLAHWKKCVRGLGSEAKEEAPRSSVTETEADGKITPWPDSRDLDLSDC
human CB1 receptor (hCB1), sequence (P21554 whole entry): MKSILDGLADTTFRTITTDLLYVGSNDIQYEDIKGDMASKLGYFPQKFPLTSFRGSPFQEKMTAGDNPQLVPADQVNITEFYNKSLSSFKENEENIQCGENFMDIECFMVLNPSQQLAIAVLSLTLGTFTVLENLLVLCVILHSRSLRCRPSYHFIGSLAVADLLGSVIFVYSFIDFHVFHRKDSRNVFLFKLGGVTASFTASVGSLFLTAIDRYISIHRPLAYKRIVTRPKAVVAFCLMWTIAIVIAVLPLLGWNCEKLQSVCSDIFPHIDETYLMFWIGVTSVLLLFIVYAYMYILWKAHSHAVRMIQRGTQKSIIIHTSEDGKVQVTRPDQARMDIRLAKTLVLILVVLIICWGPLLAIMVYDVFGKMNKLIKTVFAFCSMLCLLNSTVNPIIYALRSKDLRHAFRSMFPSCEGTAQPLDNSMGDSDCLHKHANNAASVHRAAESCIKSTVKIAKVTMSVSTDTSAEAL

## CNC(=O)[C@@H](NC(=O)c1nc(-c2ccccc2)n2c1CCN(CC1CC1)CC2)C(C)(C)C [Compound 3-11, (S)-7-(cyclopropylmethyl)-N-(3,3-dimethyl-1-(methylamino)-1-oxobutan-2-yl)-3-phenyl-6,7,8,9-tetrahydro-5H-imidazo[1,5-d][1,4]diazepine-1-carboxamidc]
[1]
  pEC50: < 5.00
[2]
  pEC50: < 5.00
Rat CB2 receptor (rCB2)
  pEC50: 8.00 to 10.00

## CNC(=O)[C@@H](NC(=O)c1nc(-c2ccccc2)n2c1CCN(C)CC2)C(C)(C)C [Compound 3-9, (S)-N-(3,3-dimcthyl-1-(methylamino)-1-oxobutan-2-yl)-7-methyl-3-phenyl-6,7,8,9-tetrahydro-5H-imidazo[1,5-d][1,4]diazepine-1-carboxamide]
[1]
  pEC50: < 5.00
[2]
  pEC50: < 5.00
Rat CB2 receptor (rCB2)
  pEC50: < 5.00

## Cc1nnc(-c2nc(-c3ccc(F)c(F)c3)n3c2CCCCC3)o1 [Compound 4-1, 2-(3-(3,4-difluorophenyl)-6,7,8,9-tetrahydro-5H-imidazo[1,5-a]azepin-1-yl)-5-methyl-1,3,4-oxadiazole]
[1]; text statement b297, read-out: EC50 human CB2 receptor
  pEC50: < 5.00
Rat CB2 receptor (rCB2); above the detectable range, read-out: EC50 rat CB2 receptor
  pEC50: < 5.00

## CNC(=O)[C@@H](NC(=O)c1nc(-c2ccccc2)n2c1CCN(S(=O)(=O)c1ccc(F)cc1)CC2)C(C)(C)C [Compound 3-15, (S)-N-(3,3-dimethyl-1-(methylamino)-1-oxobutan-2-yl)-7-(4-fluorophenyl-sulfonyl)-3-phenyl-6,7,8,9-tetrahydro-5H-imidazo[1,5-d][1,4]diazepine-1-carboxamide]
Rat CB2 receptor (rCB2)
  pEC50: 8.00 to 10.00

## CNC(=O)[C@@H](NC(=O)c1nc(-c2ccccc2)n2c1CCNCC2)C(C)(C)C [Compound 3-8, (S)-N-(3,3-dimethyl-1-(methylamino)-1-oxobutan-2-yl)-3-phenyl-6,7,8,9-tetrahydro-5H-imidazo[1,5-d][1,4]diazepine-1-carboxamide]
Rat CB2 receptor (rCB2)
  pEC50: 7.00 to 8.00

## CNC(=O)[C@@H](NC(=O)c1nc(-c2ccccc2)n2c1CCN(C(C)=O)CC2)C(C)(C)C [Compound 3-12, (S)-7-acetyl-N-(3,3-dimethyl-1-(methylamino)-1-oxobutan-2-yl)-3-phenyl-6,7,8,9-tetrahydro-5H-imidazo[1,5-d][1,4]diazepine-1-carboxamide]
[1]
  pEC50: < 5.00
[2]
  pEC50: < 5.00
Rat CB2 receptor (rCB2)
  pEC50: < 5.00

## CCS(=O)(=O)N1CCc2c(C(=O)N[C@H](C(=O)NC)C(C)(C)C)nc(-c3ccccc3)n2CC1 [Compound 3-14, (S)-N-(3,3-dimethyl-1-(methylamino)-1-oxobutan-2-yl)-7-(ethylsulfonyl)-3-phenyl-6,7,8,9-tetrahydro-5H-imidazo[1,5-d][1,4]diazepine-1-carboxamide]
[1]
  pEC50: < 5.00
[2]
  pEC50: < 5.00
Rat CB2 receptor (rCB2)
  pEC50: 7.00 to 8.00
